Source: ChEMBL document CHEMBL2346647, “Identification and characterization of small molecule inhibitors of signal transducer and activator of transcription 3 (STAT3) signaling pathway by virtual screening” (Bioorg Med Chem Lett, 2013)
pIC50: −log10 of the molar value. The source made the active and inactive calls. The calls are words filed in the database; no cut-off is given here.

How the values were obtained:
[1] = molecular target: Signal transducer and activator of transcription 3 (Homo sapiens) (UniProt P40763); assay: Inhibition of IL-6-induced STAT3 pathway in human HepG2 cells at 10 uM by luciferase reporter gene assay; format: cell-based
Signal transducer and activator of transcription 3 (Homo sapiens), sequence (P40763 whole entry): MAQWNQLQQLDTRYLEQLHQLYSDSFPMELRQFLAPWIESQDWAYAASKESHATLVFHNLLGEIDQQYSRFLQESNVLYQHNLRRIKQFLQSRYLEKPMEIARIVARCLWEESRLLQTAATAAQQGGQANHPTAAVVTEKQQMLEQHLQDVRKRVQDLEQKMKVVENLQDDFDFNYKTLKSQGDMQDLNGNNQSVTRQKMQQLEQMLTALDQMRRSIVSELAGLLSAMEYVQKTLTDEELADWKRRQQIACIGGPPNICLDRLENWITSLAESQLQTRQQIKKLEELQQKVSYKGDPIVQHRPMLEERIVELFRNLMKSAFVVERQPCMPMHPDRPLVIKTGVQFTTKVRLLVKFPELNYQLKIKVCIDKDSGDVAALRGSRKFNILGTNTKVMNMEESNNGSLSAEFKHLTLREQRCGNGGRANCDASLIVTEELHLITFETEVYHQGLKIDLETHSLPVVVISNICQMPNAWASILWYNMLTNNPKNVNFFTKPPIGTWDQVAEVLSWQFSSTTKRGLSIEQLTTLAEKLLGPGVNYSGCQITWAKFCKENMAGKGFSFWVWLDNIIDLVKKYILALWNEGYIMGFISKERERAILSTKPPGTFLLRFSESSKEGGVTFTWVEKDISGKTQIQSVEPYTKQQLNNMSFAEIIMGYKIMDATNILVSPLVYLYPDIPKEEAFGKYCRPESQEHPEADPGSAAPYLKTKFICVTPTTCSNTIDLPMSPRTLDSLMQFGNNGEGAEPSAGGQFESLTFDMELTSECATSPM

MDA-MB-468 [2] = assay: Cytotoxicity against human MDA-MB-468 cells assessed as inhibition of cell viability at 10 uM; format: functional
[3] = molecular target: T1, Signal transducer and activator of transcription 1-alpha/beta (Homo sapiens) (UniProt P42224); assay: Inhibition of IFN-gamma-induced STAT1 (unknown origin) at 10 uM
T1 sequence (whole entry): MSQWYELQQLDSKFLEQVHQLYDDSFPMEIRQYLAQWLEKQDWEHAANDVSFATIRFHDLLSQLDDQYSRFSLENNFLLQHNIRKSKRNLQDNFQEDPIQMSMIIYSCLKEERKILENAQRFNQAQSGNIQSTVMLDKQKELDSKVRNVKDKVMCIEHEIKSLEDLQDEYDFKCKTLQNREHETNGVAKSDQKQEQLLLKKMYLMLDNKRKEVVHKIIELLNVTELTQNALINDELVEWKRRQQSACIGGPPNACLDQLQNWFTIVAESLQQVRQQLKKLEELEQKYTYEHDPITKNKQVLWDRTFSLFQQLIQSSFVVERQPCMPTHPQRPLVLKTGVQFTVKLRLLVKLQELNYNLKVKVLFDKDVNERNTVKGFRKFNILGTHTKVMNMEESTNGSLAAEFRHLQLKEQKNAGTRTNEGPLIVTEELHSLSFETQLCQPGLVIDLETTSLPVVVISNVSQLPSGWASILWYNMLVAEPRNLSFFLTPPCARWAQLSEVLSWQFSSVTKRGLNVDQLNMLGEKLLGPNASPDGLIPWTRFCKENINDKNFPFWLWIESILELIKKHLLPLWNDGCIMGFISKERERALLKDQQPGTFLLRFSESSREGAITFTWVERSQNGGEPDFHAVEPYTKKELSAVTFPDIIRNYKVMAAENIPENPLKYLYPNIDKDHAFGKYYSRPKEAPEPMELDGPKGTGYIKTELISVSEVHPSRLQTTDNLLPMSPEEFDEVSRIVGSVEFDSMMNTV

HepG2 [4] = assay: Effect on SRC protein level in human HepG2 cells pretreated at 50 uM for 48 hrs prior to IL-6 stimulation by Western blot analysis; format: functional, cell-based
HepG2 [5] = assay: Effect on JAK2 protein level in human HepG2 cells pretreated at 50 uM for 48 hrs prior to IL-6 stimulation by Western blot analysis; format: functional, cell-based
MDA-MB-468 [6] = assay: Cytotoxicity against human MDA-MB-468 cells assessed as inhibition of cell viability; format: functional, cell-based
[7] = molecular target: Signal transducer and activator of transcription 3 (Homo sapiens) (UniProt P40763); assay: Inhibition of IL-6-induced STAT3 phosphorylation at Tyr705 residue in human HepG2 cells pretreated at 50 uM for 6 to 48 hrs prior to IL-6 stimulation by Western blot analysis; format: cell-based
HepG2 [8] = assay: Effect on total STAT3 protein level in human HepG2 cells pretreated for 6 hrs prior to IL-6 stimulation by Western blot analysis; format: functional, cell-based
[9] = molecular target: Proto-oncogene tyrosine-protein kinase Src (Homo sapiens) (UniProt P12931); assay: Effect on SRC in human HepG2 cells pretreated at 50 uM for 6 to 48 hrs prior to IL-6 stimulation by Western blot analysis; format: cell-based
Proto-oncogene tyrosine-protein kinase Src (Homo sapiens), sequence (P12931 2-536 limits assumed): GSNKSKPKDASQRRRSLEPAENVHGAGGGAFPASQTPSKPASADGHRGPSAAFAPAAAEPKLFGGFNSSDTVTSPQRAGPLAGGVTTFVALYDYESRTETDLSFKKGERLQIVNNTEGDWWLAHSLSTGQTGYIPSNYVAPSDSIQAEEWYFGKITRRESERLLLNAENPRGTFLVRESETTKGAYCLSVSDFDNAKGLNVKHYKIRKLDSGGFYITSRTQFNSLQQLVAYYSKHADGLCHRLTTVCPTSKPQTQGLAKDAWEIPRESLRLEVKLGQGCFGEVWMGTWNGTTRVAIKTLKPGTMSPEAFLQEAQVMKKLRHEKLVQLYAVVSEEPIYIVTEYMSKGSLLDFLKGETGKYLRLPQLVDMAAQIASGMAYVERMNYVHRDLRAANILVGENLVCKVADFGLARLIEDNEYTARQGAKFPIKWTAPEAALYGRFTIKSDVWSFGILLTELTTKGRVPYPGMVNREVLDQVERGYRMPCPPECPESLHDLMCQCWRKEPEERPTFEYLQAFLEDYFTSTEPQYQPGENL

[10] = molecular target: Tyrosine-protein kinase JAK2 (Homo sapiens) (UniProt O60674); assay: Effect on JAK2 in human HepG2 cells pretreated at 50 uM for 48 hrs prior to IL-6 stimulation by Western blot analysis; format: cell-based
Tyrosine-protein kinase JAK2 (Homo sapiens), sequence (O60674 whole entry): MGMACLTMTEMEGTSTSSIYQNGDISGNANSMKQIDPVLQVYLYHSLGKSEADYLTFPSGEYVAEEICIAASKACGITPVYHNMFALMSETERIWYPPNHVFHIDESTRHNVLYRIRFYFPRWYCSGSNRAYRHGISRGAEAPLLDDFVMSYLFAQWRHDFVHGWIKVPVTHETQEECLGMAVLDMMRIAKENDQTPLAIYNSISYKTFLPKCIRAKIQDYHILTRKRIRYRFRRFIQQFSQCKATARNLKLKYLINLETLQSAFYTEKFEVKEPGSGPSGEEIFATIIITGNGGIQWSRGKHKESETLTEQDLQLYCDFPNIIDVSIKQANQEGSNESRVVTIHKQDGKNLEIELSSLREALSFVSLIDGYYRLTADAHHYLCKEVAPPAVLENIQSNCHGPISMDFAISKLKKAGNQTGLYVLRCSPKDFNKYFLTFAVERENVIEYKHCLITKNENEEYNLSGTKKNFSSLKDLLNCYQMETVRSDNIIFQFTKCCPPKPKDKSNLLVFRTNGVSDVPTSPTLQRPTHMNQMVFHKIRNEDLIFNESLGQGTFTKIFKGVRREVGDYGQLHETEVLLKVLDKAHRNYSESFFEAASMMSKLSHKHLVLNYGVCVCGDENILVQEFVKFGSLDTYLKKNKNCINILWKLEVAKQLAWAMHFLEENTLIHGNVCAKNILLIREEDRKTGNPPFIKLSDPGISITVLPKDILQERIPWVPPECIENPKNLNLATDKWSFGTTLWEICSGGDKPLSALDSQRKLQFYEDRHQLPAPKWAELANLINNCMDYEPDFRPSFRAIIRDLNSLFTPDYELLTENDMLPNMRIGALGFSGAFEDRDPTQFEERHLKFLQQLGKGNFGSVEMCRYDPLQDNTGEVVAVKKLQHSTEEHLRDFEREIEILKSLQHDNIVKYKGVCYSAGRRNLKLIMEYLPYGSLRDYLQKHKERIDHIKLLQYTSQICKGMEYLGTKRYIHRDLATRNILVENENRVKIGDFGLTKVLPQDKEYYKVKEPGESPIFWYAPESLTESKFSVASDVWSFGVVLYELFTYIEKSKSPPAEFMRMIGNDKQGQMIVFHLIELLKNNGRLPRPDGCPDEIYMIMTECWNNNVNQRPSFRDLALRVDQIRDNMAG

[11] = molecular target: Signal transducer and activator of transcription 3 (Homo sapiens) (UniProt P40763); assay: Inhibition of IL-6-induced STAT3 phosphorylation at Tyr705 residue in human HepG2 cells pretreated for 6 to 48 hrs prior to IL-6 stimulation by Western blot analysis; format: cell-based

COCCNCc1ccc(OCc2cc(Cl)cc(Cl)c2)cc1
inhibition [1]: 20.2% | inhibition at 10 µM (MDA-MB-468 [2]): 16.4%

NC(=O)COc1ccc(Cl)cc1CNCCN1CCOCC1
inhibition [1]: 3.63% | inhibition at 10 µM (MDA-MB-468 [2]): -2.61%

Oc1ccc(NCc2cc(Cl)ccc2OCc2ccc(Cl)cc2)cc1
inhibition [3]: 14.3% | Activity (HepG2 [4]): inactive | Activity (HepG2 [5]): inactive | pIC50 (MDA-MB-468 [6]): 4.73 | inhibition [7]: Active | Activity (HepG2 [8]): inactive | inhibition [1]: 44.9% | Activity [9]: inactive | inhibition at 10 µM (MDA-MB-468 [2]): 46.8% | Activity [10]: inactive

NC(=O)COc1ccc(Cl)cc1CNCc1ccc(F)cc1
inhibition [1]: 1.69% | inhibition at 10 µM (MDA-MB-468 [2]): 54.8%

NC(=O)COc1ccc(Cl)cc1CNCCc1ccccc1
inhibition [1]: 14.3% | inhibition at 10 µM (MDA-MB-468 [2]): -8.1%

Clc1ccc(COc2ccccc2CNCc2ccccn2)cc1
inhibition [1]: 15.6% | inhibition at 10 µM (MDA-MB-468 [2]): 18.9%

Cc1cccc(NCc2cc(Br)ccc2OCc2ccc(Cl)cc2)c1C
inhibition [1]: 34.5% | inhibition at 10 µM (MDA-MB-468 [2]): -2.03%

NS(=O)(=O)c1ccc(NCc2cc(Cl)ccc2OCc2ccccc2)cc1
Activity (HepG2 [4]): inactive | Activity (HepG2 [5]): inactive | pIC50 (MDA-MB-468 [6]): 4.55 | inhibition [7]: Active | Activity (HepG2 [8]): inactive | inhibition [1]: 42.1% | Activity [9]: inactive | inhibition at 10 µM (MDA-MB-468 [2]): 27.7% | Activity [10]: inactive

COc1ccc(Cl)cc1CNCc1ccc2c(c1)OCO2
inhibition [1]: -6.39% | inhibition at 10 µM (MDA-MB-468 [2]): -4.03%

OCCNCc1cc(Br)ccc1OCc1ccc(Cl)cc1
pIC50 (MDA-MB-468 [6]): 4.64 | inhibition [1]: 33.2% | inhibition at 10 µM (MDA-MB-468 [2]): 26.6%

CC(O)CNCc1c(OCc2ccccc2Cl)ccc2ccccc12 (stereo not drawn)
inhibition at 10 µM (MDA-MB-468 [2]): 14.9%

O=C(O)c1ccc(CNCc2ccccc2OCc2ccccc2)cc1
inhibition [1]: -8.72% | inhibition at 10 µM (MDA-MB-468 [2]): -10.8%

C#CCOc1ccc(Cl)cc1CNc1ccccc1Cl
inhibition at 10 µM (MDA-MB-468 [2]): 15.5%

Fc1ccc(COc2ccc(Cl)cc2CNCC2CCNCC2)cc1
inhibition at 10 µM (MDA-MB-468 [2]): 38.8%

Fc1ccc(COc2ccc(Cl)cc2CNCC2CCCO2)cc1 (stereo not drawn)
inhibition [1]: 27.8% | inhibition at 10 µM (MDA-MB-468 [2]): 27.5%

COc1cc(/C=C/C(=O)CC(=O)/C=C/c2ccc(O)c(OC)c2)ccc1O [CURCUMIN]
inhibition [11]: Dose-dependent effect | inhibition [1]: 41% | inhibition at 10 µM (MDA-MB-468 [2]): 3.88%

Clc1ccc(OCc2ccccc2Cl)c(CNCc2ccccc2)c1
inhibition [1]: 36.6% | inhibition at 10 µM (MDA-MB-468 [2]): 10.7%
